# Results as given in publication PMC11233931, “Remodeling tumor‐associated macrophage for anti‐cancer effects by rational design of irreversible inhibition of mitogen‐activated protein kinase‐activated protein kinase 2” (MedComm, 2024).
# Tests used:
# Assay in all cases: Eurofins kinase selectivity profile against 380 other human recombinant kinases (Table S2)
# Format in all cases: biochemical
# [1] = biological target: T1, 380 human recombinant protein kinases (Homo sapiens, UniProt Q9BZL6); details: PKD2(h), read-out: Inhibition rate
# T1 construct: purchased Eurofins (Celle Lévescault)
# T1 sequence (Q9BZL6 1-878): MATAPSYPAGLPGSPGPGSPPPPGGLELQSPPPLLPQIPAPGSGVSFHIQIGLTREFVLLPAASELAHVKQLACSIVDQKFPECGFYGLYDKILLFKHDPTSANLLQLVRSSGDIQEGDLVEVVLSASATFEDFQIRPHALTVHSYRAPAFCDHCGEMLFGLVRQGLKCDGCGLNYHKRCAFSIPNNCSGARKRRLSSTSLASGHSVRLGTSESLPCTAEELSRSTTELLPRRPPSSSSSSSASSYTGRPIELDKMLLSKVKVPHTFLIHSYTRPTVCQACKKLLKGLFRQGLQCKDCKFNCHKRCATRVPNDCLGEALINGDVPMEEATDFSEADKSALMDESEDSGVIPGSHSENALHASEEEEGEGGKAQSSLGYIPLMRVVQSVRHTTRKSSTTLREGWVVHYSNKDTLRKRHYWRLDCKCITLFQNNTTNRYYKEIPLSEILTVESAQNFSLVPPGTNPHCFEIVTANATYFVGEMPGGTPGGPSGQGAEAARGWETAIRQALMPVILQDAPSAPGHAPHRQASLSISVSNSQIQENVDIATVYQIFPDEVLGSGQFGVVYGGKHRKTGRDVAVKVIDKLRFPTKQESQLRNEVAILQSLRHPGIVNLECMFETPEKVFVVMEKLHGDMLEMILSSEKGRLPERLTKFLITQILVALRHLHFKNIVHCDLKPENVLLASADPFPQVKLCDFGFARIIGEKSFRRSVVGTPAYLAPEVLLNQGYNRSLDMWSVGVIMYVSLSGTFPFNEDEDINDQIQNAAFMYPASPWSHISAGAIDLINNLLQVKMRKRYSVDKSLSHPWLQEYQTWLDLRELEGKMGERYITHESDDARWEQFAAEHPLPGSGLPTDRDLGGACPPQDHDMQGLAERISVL
# Outline: (§1)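 Commercial selectivity screen of the test compound against a panel of 380 human recombinant protein kinases, run by an outside contractor at several compound concentrations to check whether its potency was specific for MK2.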
# [2] = biological target: T2, 380 human recombinant protein kinases (Homo sapiens, UniProt O00506); details: STK25(h), read-out: Inhibition rate (%)
# T2 construct: purchased Eurofins (Celle Lévescault)
# Outline: as §1
# [3] = biological target: T3, 380 human recombinant protein kinases (Homo sapiens, UniProt Q6DT37); details: MRCKγ(h), read-out: Inhibition rate
# T3 construct: purchased Eurofins (Celle Lévescault)
# Outline: as §1
# [4] = biological target: T4, 380 human recombinant protein kinases (Homo sapiens, UniProt P49761); details: CLK3(h), read-out: Inhibition rate
# T4 construct: purchased Eurofins (Celle Lévescault)
# Outline: as §1
# [5] = biological target: T5, 380 human recombinant protein kinases (Homo sapiens, UniProt Q9Y463); details: DYRK1B(h), read-out: Inhibition rate
# T5 construct: purchased Eurofins (Celle Lévescault)
# Outline: as §1
# [6] = biological target: T6, 380 human recombinant protein kinases (Homo sapiens, UniProt P10398); details: A-Raf(h), read-out: Inhibition rate
# T6 construct: purchased Eurofins (Celle Lévescault)
# T6 sequence (P10398 1-606): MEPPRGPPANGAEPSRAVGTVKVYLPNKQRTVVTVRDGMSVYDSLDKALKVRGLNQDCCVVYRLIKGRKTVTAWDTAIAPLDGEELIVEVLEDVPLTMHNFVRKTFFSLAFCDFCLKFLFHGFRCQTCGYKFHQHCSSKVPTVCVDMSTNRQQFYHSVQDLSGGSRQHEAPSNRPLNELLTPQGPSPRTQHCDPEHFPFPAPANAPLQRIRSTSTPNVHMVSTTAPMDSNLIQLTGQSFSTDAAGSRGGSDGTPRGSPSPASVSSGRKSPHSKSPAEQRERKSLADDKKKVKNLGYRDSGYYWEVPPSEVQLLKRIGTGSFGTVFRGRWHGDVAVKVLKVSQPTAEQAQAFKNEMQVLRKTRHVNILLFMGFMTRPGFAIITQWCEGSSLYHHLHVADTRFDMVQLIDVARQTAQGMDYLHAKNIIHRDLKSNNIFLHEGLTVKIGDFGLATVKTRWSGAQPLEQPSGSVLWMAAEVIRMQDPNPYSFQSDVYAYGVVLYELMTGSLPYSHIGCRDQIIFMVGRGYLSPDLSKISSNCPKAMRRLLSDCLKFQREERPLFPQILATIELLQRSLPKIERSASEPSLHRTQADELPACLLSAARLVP
# Outline: as §1
# T4 sequence (P49761 whole entry): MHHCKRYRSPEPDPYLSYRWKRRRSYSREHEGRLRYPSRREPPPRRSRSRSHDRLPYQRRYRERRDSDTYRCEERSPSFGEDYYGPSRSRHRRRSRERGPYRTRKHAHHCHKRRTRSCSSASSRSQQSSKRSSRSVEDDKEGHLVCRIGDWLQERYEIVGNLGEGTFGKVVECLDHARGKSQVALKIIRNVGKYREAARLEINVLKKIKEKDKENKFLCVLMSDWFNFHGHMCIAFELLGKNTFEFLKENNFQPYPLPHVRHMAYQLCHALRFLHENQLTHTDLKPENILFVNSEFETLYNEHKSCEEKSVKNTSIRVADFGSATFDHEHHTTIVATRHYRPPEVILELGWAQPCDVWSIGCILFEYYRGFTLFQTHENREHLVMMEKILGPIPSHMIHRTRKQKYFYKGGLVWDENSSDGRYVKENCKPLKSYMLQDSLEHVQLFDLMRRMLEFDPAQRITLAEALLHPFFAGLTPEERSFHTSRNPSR
# T5 sequence (Q9Y463 whole entry): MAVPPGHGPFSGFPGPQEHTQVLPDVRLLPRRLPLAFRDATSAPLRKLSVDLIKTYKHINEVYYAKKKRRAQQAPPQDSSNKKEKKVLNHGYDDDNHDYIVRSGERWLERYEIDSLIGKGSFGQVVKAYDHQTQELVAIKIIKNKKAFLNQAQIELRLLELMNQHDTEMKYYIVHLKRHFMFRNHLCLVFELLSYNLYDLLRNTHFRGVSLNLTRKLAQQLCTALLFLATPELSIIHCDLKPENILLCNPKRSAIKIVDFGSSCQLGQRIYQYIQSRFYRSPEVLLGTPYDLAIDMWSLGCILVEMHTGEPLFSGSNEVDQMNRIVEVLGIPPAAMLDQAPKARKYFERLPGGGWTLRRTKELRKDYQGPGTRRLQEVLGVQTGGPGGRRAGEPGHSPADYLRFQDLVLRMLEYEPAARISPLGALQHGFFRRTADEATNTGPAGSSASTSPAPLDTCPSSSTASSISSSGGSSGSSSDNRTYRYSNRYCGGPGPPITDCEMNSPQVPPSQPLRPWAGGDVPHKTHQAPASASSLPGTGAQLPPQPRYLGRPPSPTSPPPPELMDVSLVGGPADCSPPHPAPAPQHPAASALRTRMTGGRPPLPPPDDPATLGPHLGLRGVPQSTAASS
# T3 sequence (Q6DT37 whole entry): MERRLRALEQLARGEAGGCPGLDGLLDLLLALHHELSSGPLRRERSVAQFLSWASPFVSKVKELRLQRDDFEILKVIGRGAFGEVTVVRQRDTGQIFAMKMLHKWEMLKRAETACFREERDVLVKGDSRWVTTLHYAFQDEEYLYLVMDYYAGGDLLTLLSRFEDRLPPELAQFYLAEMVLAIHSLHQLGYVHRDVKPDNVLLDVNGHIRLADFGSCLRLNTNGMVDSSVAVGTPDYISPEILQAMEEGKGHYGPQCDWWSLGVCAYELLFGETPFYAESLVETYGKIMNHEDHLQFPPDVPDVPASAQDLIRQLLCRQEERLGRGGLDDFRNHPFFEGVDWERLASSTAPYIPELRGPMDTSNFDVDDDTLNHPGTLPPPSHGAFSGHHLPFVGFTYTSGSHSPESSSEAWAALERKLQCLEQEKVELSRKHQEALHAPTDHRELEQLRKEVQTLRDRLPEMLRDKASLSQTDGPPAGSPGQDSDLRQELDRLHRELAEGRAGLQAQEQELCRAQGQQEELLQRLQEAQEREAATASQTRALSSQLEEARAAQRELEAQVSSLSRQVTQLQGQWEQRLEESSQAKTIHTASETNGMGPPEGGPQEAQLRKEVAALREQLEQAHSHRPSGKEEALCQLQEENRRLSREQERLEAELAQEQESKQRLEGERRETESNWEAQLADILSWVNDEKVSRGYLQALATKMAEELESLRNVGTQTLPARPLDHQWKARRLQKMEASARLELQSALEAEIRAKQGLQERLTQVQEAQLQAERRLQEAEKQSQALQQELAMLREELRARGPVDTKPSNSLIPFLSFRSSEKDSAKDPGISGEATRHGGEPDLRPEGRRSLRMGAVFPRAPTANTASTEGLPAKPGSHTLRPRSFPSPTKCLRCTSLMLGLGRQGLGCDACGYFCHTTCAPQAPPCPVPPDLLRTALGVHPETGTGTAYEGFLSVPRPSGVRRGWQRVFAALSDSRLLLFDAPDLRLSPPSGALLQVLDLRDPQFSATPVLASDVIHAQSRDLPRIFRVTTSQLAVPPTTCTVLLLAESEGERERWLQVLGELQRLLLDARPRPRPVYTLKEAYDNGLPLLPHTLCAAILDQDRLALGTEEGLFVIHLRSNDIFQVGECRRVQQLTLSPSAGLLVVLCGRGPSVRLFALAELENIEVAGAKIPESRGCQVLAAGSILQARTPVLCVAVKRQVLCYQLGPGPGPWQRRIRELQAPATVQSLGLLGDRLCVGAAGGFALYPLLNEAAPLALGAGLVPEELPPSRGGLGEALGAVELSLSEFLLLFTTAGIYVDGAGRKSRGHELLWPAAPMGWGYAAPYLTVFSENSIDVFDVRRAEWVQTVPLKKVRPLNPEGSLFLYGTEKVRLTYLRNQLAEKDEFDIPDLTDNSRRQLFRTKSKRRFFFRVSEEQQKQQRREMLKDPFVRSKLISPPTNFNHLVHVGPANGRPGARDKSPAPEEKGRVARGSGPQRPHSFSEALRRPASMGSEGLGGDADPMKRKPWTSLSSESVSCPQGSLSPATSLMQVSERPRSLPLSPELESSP
# T2 sequence (O00506 whole entry): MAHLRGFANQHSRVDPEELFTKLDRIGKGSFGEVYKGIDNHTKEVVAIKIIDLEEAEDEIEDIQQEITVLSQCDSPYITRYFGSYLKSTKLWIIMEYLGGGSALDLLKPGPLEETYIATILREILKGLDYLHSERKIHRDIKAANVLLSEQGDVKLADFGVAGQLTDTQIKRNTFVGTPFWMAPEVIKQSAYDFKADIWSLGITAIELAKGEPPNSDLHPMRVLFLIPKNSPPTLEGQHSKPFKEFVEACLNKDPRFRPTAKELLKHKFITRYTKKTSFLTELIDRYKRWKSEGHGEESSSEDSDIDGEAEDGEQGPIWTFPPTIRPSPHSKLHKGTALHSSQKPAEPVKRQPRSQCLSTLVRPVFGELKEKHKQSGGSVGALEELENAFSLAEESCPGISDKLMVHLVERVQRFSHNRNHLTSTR
compound,measurement,setting,value
C=CC(=O)Nc1cc(-c2cc(-c3cc4c([nH]3)CCNC4=O)ccn2)ccc1OC(F)(F)F [compound 11],inhibition at 0.01 µM,[1]; 10 nM,0%
same,inhibition at 0.1 µM,[1]; 100 nM,8%
same,inhibition at 1 µM,[1]; 1000 nM,47%
same,inhibition at 0.01 µM,[2]; 10 nM,-4%
same,inhibition at 0.1 µM,[2]; 100 nM,1%
same,inhibition at 1 µM,[2]; 1000 nM,0%
same,inhibition at 0.01 µM,[3]; 10 nM,-13%
same,inhibition at 0.1 µM,[3]; 100 nM,2%
same,inhibition at 1 µM,[3]; 1000 nM,12%
same,inhibition at 0.01 µM,[4]; 10 nM,-3%
same,inhibition at 0.1 µM,[4]; 100 nM,3%
same,inhibition at 1 µM,[4]; 1000 nM,10%
same,inhibition at 0.01 µM,[5]; 10 nM,21%
same,inhibition at 0.1 µM,[5]; 100 nM,77%
same,inhibition at 1 µM,[5]; 1000 nM,97%
same,inhibition at 0.01 µM,[6]; 10 nM,1%
same,inhibition at 0.1 µM,[6]; 100 nM,15%
same,inhibition at 1 µM,[6]; 1000 nM,18%
